Experimental data taken from patent US7160733B2, “Ligand specific to β2-glycoprotein I and use thereof” (priority 2001, dated 2007).

What was measured:
APS-1 = experiment: ELISA on solid-phase lipid-coated plate: binding of antibodies of APS patient serum APS-1; parameters: species or system human; conditions: Experiment 1; Absorbance, mean ± SD, n = 3; solid-phase lipid, β2-GPI 15 μg/mL; serum with β2-GPI removed
Experimental: To eliminate endogenous β2-GPI in some experiments, serum samples were passed through a heparin-Sepharose column. The effluent was dialyzed against PBS and was used for ELISAs.
(§1) Synthesized oxLig-1 (50 μg/mL, 50 μL/well) was adsorbed by evaporation on a polystyrene plate (Immulon 1B; Dynex Technologies Inc.), and the plate was then blocked with 1% BSA. Serum samples (diluted 1:100 with PBS containing 0.3% BSA) were incubated in the wells with β2-GPI (15 μg/mL) or other proteins for one hour at room temperature. Antibody binding was detected with HRP-labeled anti-human IgG. Further steps were performed through a method as described in “anti-β2-GPI ELISA.”
(§2) CL (50 μg/mL, 50 μL/well) was adsorbed on a polystyrene plate (Immulon 1B), and further steps were performed through a method as described in “ELISA for antibodies against a protein-oxLig-1 complex.”

anti-β2-GPI antibodies = experiment: ELISA of the anti-β2-GPI antibodies by use of a ligand-coated plate (results in words); format: binding; conditions: result in words
Experimental: (§3) Binding to extracted lipids: A microtiter plate (Immulon 1B, Dynex Technologies Inc.) was coated with lipids extracted from LDLs (50 μg/mL, 50 μL/well) by ethanol evaporation. The wells were blocked with PBS containing 1% BSA for one hour and the wells were incubated with 30 μg/mL of β2-GPI for one hour. Then, β2-GPI binding was detected using Cof-22 and HRP-labeled anti-mouse IgG antibodies. Alternatively, an anti-β2-GPI autoantibody (Cof-22, WB-CAL-1, or EY2C9) was diluted with a 0.3% BSA-containing PBS, and the diluted antibody was added to the coated plate (1.0 μg/mL, 100 μL/well) and incubated with β2-GPI (15 μg/mL) for one hour. The binding of the antibody was detected by an HRP-labeled anti-mouse IgG /or an anti-human IgM. The color was developed with H2O2 and o-phenylenediamine, and OD was measured at 490 nm. Between these steps, extensive washing were done using PBS containing 0.05% Tween 20.
as §1

β2-GPI = biological target: T1, β2-GPI (Homo sapiens, UniProt P02749); experiment: ELISA on solid-phase lipid (ligand)-coated plate: β2-GPI binding detected with Cof-22
T1 construct: β2-GPI was purified from normal human plasma as described in [35] with slight modification; from tissue; host or cells: pooled normal human plasma from healthy subjects
T1 sequence (P02749 20-345): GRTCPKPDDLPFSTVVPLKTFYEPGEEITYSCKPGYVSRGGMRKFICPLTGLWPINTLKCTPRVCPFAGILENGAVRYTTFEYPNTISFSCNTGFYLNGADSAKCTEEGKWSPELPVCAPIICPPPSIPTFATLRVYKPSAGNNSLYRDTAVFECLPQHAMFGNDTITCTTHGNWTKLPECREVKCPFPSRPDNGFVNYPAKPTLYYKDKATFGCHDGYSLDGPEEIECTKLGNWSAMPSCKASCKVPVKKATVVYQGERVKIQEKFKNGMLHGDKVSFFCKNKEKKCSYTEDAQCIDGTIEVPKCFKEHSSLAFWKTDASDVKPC
Experimental: as §3, §1, §2

[1] = biological target: T2, β2-GPI and anti-β2-GPI antibodies (Cof-22, WB-CAL-1, EY2C9) (Homo sapiens, UniProt P02749); experiment: TLC ligand blot with β2-GPI and anti-β2-GPI antibodies; format: binding; conditions: result in words
T2 construct: β2-GPI was purified from normal human plasma as described in [35] with slight modification; from tissue; host or cells: β2-GPI from pooled normal human plasma
T2 sequence (P02749 20-345): T1 sequence (P02749 20-345)
Source text: Extracted lipids were spotted on a Polygram silica gel plate (product of Machery-Nagel) and developed in chloroform/methanol/30% ammonia/water (120:80:10:5, v/v/v/v, hereinafter referred to as solvent A). The plate was stained with I2 vapor, or with a spray of molybdenum blue, of 2N sulfuric acid containing 2% orcin, or of glacial acetic acid/sulfuric acid (19:1, v/v) (Lieberman-Burchard reaction). Alternatively, the developed plate was subjected to ligand blot with β2-GPI and an anti-β2-GPI antibody. TLC plates were blocked with PBS containing 1% bovine serum albumin (BSA) and were subsequently incubated with β2-GPI, anti-β2-GPI antibodies (Cof-22, WB-CAL-1, or EY2C9), and HRP-labeled anti-mouse IgG antibodies or anti-human IgM antibodies for one hour. In each step, plates were extensively washed with PBS. The color was developed with H2O2 and 4-methoxy-1-naphtol (product of Aldrich). The ligand-enriched bands scraped from the TLC plate were subjected to another TLC in chloroform/methanol (8:1, v/v) (hereinafter referred to as solvent B). […]
A fraction rich in a ligand (originating from oxLDL) obtained by two-step TLC was analyzed by reversed phase HPLC on a Sephasil Peptide C-18 5-μm column (4.6 mm×250 mm; product of Amersham-Pharmacia Biotech). […]

SMILES: CC(C)CCC[C@@H](C)[C@H]1CC[C@H]2[C@@H]3C(=O)C=C4C[C@@H](OC(=O)CCCCCCCC(=O)O)CC[C@]4(C)[C@H]3CC[C@]12C [oxLig-1, 9-oxo-9-(7-ketocholest-5-en-3β-yloxy)nonanoic acid]
- Binding of β2-GPI-dependent aCL, APS-1 (APS-1): 1.130 ± 0.177
- binding of the anti-β2-GPI autoantibodies (WB-CAL-1 and EY2C9) to solid-phase ligand (anti-β2-GPI antibodies; ligand-coated plate): significant binding
- cross-reaction of autoantibodies derived from APS with β2-GPI complexed with lipid (anti-β2-GPI antibodies): cross-reacted
- Binding of β2-GPI-dependent aCL, Cof-22 (β2-GPI; Experiment 1, Absorbance, mean ± SD, n = 3, solid-phase lipid, β2-GPI 15 μg/mL): 1.066 ± 0.114
- β2-GPI binding (Cof-22 binding), No treatment (β2-GPI; absorbance at 490 nm, mean ± SD (n = 3), solid-phase ligand not methylated): 1.307 +/− 0.105
- β2-GPI binding to lipid (β2-GPI; result in words (discussion)): significant bonding
- ligand blot: interaction of β2-GPI and anti-β2-GPI antibodies with ligand [1]: positively stained
- ligand blot: interaction of β2-GPI and anti-β2-GPI antibodies with ligand ([1]; listed as Synthesized oxLig-1): same Rf position and binding characteristics
